# Laboratory results: patent US12171766B2, “Methods of treating patients suffering from brain injury and methods of increasing the value of the extended Glasgow Outcome Scale of patients suffering from brain injury” (VERINOS OPERATIONS GMBH, priority 2021, dated 2024)
# Test system: adult intensive care patients with acute moderate and severe TBI
# Test: NOSTRA phase III trial: Extended Glasgow Outcome Scale (eGOS) at 3 and 6 months, Ronopterin 17 mg/kg infused over 48 hours vs placebo, incl. post hoc subgroup analyses
# Format: in vivo, human
# Method: A phase III trial of Ronopterin infusion to adult TBI patients (18-60 years) with acute moderate and severe TBI was performed. Based on the results of the earlier phase II study, the NOSTRA (NO Synthase in TRAumatic Brain Injury) phase III trial was designed to detect clinically relevant differences in clinical outcome (Extended Glasgow Outcome Score at 6 months after injury) as primary endpoint.
# NOSTRA III was a multicentre, prospective, two parallel groups, blinded, placebo-controlled, randomised phase III trial of Ronopterin infusion for 48 hours in adult intensive care patients with acute moderate and severe TBI. […] The detailed study protocol is described by Tegtmeier et al. Efficacy of Ronopterin (VAS203) in Patients with Moderate and Severe Traumatic Brain Injury (NOSTRA phase III trial): study protocol of a confirmatory, placebo-controlled, randomised, double blind, multi-centre study. Trials. 2020. A total of 224 evaluable patients with moderate and severe TBI were enrolled in 32 centres in Austria, France, Germany, Spain, and United Kingdom. The trial started on 24 Aug. 2016 with last-patient last-visit on 17 Jun. 2020.
# Patients between 18 and 60 years of age with Glasgow Coma Score≥3 requiring intracranial pressure (ICP) monitoring were enrolled. Other inclusion criteria were TBI within the last 18 hours but at least 6 hours after the injury, which were expected to survive more than 24 hours after admission.
# Ronopterin and placebo (0.9% saline) were infused continuously via central venous catheter at a constant rate. A total dose of 17 mg/kg body weight of Ronopterin was infused for 48 hours (daily dose 8.5 mg/kg body weight).
# The primary outcome was the difference between eGOS in Ronopterin and placebo treated patients at 6 months after trauma. The eGOS was determined by a face to face meeting by trained assessors.
# The null-hypothesis of no shift across the 8 ordered categories of eGOS for the two treatment groups was tested after six months based on a proportional odds model stratified by age (18-39 years and 40-60 years). The treatment effect was estimated using ordinal Logistic regression model as the (proportional) odds ratio of Ronopterin versus Placebo. Treatment and age (18-39 years and 40-60 years) were included in the model. The proportional odds assumption was tested using a Chi-Square Score Test.
# As secondary efficacy endpoint the eGOS at 3 months was analysed using the same statistics.
# The main objective of the post hoc analyses was to estimate the effect size of VAS203 compared with placebo for the primary endpoint eGOS-I in the subgroups time to infusion ≤12 hours and >12 hours. Supportive analyses were conducted by age group (<40 years, ≥40 years) because age group was used as a stratification factor in the study. Comparability between treatment groups regarding demographics as well as severity and location of disease was investigated using similar methods as in the main CSR.
# The proportions of patients per eGOS-I level at 3 months and at 6 months were calculated. For the change in eGOS-I over time, the proportion of patients with changes from 3 to 6 months were calculated by eGOS-I level, and in addition categorised as decreased (i.e. any decrease in eGOS-I level from 3 to 6 months), unchanged (i.e. no change in eGOS-I level from 3 to 6 months), and increased (i.e. any increase in eGOS-I level from 3 to 6 months).
# Ordinal logistic regression was used for the analysis of eGOS-I at 3 months and at 6 months, including treatment group and age group (<40 years, ≥40 years) as factors in the model. Estimated odds ratios for the comparison of the VAS203 and placebo groups of >1 mean that eGOS-I was higher in the VAS203 group than in the placebo group across the 8 levels, whereas odds ratios of <1 mean that eGOS-I was lower in the VAS203 group than in the placebo group. Odds ratios together with their 95% CIs were used to estimate and assess the size of the treatment effect of VAS203 compared to placebo. […]
# [1] = female patients, ≤12 hours (FIGS. 14A-D)
structure (smiles),measurement,setting,value
"CC(O)C(O)C1CNc2nc(N)nc(N)c2N1 [Ronopterin, 4-Amino-(6R,S)-5,6,7,8-tetrahydro-L-biopterin]",number of patients with increase in eGOS by at least 2 levels from 3 to 6 months,"age 40-60 years, all times to infusion (FIG. 8C)",10
same,more patients with higher increase in eGOS over time vs placebo: significance,"age 40-60 years, all times to infusion (FIG. 8D)",not (statistically) significant
same,increase in eGOS levels from 3 to 6 months,"age 40-60 years, ≤12 hours (FIG. 9A)",up to 4 levels
same,number of patients with increase in eGOS by at least 2 levels from 3 to 6 months,"age 40-60 years, ≤12 hours (FIG. 9C)",5
same,Odds ratio for increases in eGOS levels from 3 to 6 months,"age group 18-39 (<40), early infusion (≤12 hours), vs placebo",4.398
same,patients with an increase in their eGOS levels (eGOS responders) vs placebo,"age ≥40 years, ≤12 hours (FIGS. 9A-D)",trend to more patients with an increase in their eGOS levels
same,increase in eGOS levels from 3 to 6 months,"all ages, >12 hours (FIG. 5E)",up to 4 levels
same,number of patients with increase in eGOS by at least 2 levels from 3 to 6 months,"all ages, early infusion ≤12 hours (FIG. 5C)",9
same,number of patients with increase in eGOS by at least 2 levels from 3 to 6 months,"all ages, late infusion >12 hours (FIG. 5G)",15
same,increase in eGOS levels from 3 to 6 months,"all ages, ≤12 hours (FIG. 5A)",up to 4 levels
same,increase in proportion of patients with an eGOS increase by at least 1 level compared to Placebo: significance,"all ages, ≤12 hours (FIGS. 5A-D)",significant
same,less patients with a decrease in eGOS over time vs placebo: significance,"all patients, all times to infusion",not (statistically) significant
same,increase in eGOS levels from 3 to 6 months,"all patients, all times to infusion (FIG. 4A)",up to 4 levels
same,number of patients with increase in eGOS by at least 2 levels from 3 to 6 months,"all patients, all times to infusion (FIG. 4C)",24
same,more patients with higher increase in eGOS over time vs placebo: significance,"all patients, all times to infusion (FIG. 4D)",not (statistically) significant
same,"overall eGOS-I rating at 6 months, Ronopterin vs placebo (primary efficacy endpoint)","all patients, ordinal logistic regression",No difference
same,increase in eGOS levels from 3 to 6 months,"female patients, >12 hours (FIG. 14E)",up to 2 levels
same,number of patients with increase in eGOS by at least 2 levels from 3 to 6 months,"female patients, >12 hours (FIG. 14G)",2
same,increase in eGOS levels from 3 to 6 months,"female patients, all times to infusion (FIG. 13A)",up to 2 levels
same,number of patients with increase in eGOS by at least 2 levels from 3 to 6 months,"female patients, all times to infusion (FIG. 13C)",2
same,less female patients with higher increase in eGOS over time vs placebo: significance,"female patients, all times to infusion (FIG. 13D)",not (statistically) significant
same,"increase in proportion of patients with Good Recovery (eGOS 7 and 8) from 3 to 6 months, compared to Placebo","female patients, early infusion ≤12 hours (FIG. 18)",exceeding the proportion in Placebo-treated patients
same,"increase in proportion of patients with Good Recovery (eGOS 7 and 8) from 3 to 6 months, compared to Placebo","female patients, late infusion >12 hours (FIG. 18)",exceeding the proportion in Placebo-treated patients
same,increase in eGOS levels from 3 to 6 months,"female patients, ≤12 hours (FIG. 14A)",up to 2 levels
same,number of patients with increase in eGOS by at least 2 levels from 3 to 6 months,"female patients, ≤12 hours (FIG. 14C)",0
same,Good Recovery at 3 months vs placebo,[1],higher Good Recovery at 3 months
same,eGOS responders vs placebo,[1],less female eGOS responders
same,increase in eGOS levels from 3 to 6 months,"male patients, >12 hours (FIG. 12E)",up to 4 levels
same,number of patients with increase in eGOS by at least 2 levels from 3 to 6 months,"male patients, >12 hours (FIG. 12G)",13
same,increase in eGOS levels from 3 to 6 months,"male patients, all times to infusion (FIG. 11A)",up to 4 levels
same,number of patients with increase in eGOS by at least 2 levels from 3 to 6 months,"male patients, all times to infusion (FIG. 11C)",22
same,more patients with higher increase in eGOS over time vs placebo: significance,"male patients, all times to infusion (FIG. 11D)",not (statistically) significant
same,patients with a decrease in eGOS over time vs placebo,"male patients, all times to infusion, p=0.04",significantly less
same,"increase in proportion of patients with Good Recovery (eGOS 7 and 8) from 3 to 6 months, compared to Placebo","male patients, early infusion ≤12 hours (FIG. 17)",exceeding the proportion in Placebo-treated patients
same,"increase in proportion of patients with Good Recovery (eGOS 7 and 8) from 3 to 6 months, compared to Placebo","male patients, late infusion >12 hours (FIG. 17)",less pronounced compared to Placebo-treated patients
same,increase in eGOS levels from 3 to 6 months,"male patients, ≤12 hours (FIG. 12A)",up to 4 levels
same,number of patients with increase in eGOS by at least 2 levels from 3 to 6 months,"male patients, ≤12 hours (FIG. 12C)",9
same,increase in proportion of patients with an eGOS increase by at least 1 level compared to Placebo: significance,"male patients, ≤12 hours (FIGS. 12A-D)",significant
same,median eGOS at 6 months,time to infusion >12 hours,5
same,proportion of patients with Good Recovery (eGOS 7 and 8) at 6 months,time to infusion >12 hours,25%
same,increase of proportion of patients with a Good Recovery at 6 months compared to the Placebo group,time to infusion ≤12 hours,61%
same,median eGOS at 6 months,time to infusion ≤12 hours,6
same,proportion of patients with Good Recovery (eGOS 7 and 8) at 6 months,time to infusion ≤12 hours,37%
same,NNT for Good Recovery (eGOS 7 and 8) at 6 months,"time to infusion ≤12 hours, vs placebo",8
